Experiment [1] relates to C57BL/6 mice. The experiment is described as follows: In vivo expression level of Luciferase-mRNA delivered by intravenous injection (bioluminescence imaging). Conditions: mRNA-loaded nanoparticles, intravenous (tail vein), 5 μg Luciferase-mRNA, 6 hours; for Fluorescence intensity of liver: compounds of Example 1. As for the experimental part:
(§1) Luciferase-mRNA was used as an mRNA model; and the cationic lipid analogues of Examples 1-5 were used to prepare drug-loaded nanoparticles according to the method of Example 6.
200 μL of nanoparticles containing 5 μg Luciferase-mRNA or the drug-loaded nanoparticles prepared above were injected into tail veins of 6-8 week-old C57BL/6 mice, and 200 μL of 1×PBS solution containing 3 mg D-Luciferin potassium salt was intraperitoneally injected into the mice 6 hours later. After waiting for 10 minutes, an in vivo expression level of the mRNA was evaluated by bioluminescence imaging.

For experiment [2], the system named is C57BL/6 mice. The experiment can be described thus: In vivo expression level of Luciferase-mRNA delivered by intramuscular injection (bioluminescence imaging). Conditions: mRNA-loaded nanoparticles, intramuscular (leg muscle), 5 μg Luciferase-mRNA, 6 hours. On the procedure:
as §1
100 μL of nanoparticles containing 5 μg Luciferase-mRNA or the drug-loaded nanoparticles prepared above were injected into the leg muscles of 6-8 week-old C57BL/6 mice, and 200 μL of 1×PBS solution containing 3 mg D-Luciferin potassium salt was intraperitoneally injected into the mice 6 hours later. After waiting for 10 minutes, an in vivo expression level of the mRNA was evaluated by bioluminescence imaging.

For the compound `CCCCCCCC/C=C\CCCCCCCC(=O)N(CCC)C(C(=O)NCCN(C)CCNC(=O)C(C(C)C)N(CCC)C(=O)CCCCCCC/C=C\CCCCCCCC)C(C)C` (stereo not shown) [A1I4R21C18-1], in experiment [1] (compounds of Example 2), the “Fluorescence intensity of spleen” value came to 2.76E+05. For the same compound, in experiment [2] (compounds of Example 2), the Local fluorescence intensity is on record as 2.26E+07.
For `CCCCC/C=C\C/C=C\CCCCCCCC(=O)N(CCC)C(C(=O)NCCN(C)CCNC(=O)C(C(C)C)N(CCC)C(=O)CCCCCCC/C=C\C/C=C\CCCCC)C(C)C` (stereo not shown) [A1I4R21C18-2], in that order: 6.62E+05 and 3.17E+05.
On the same counts, the results for `CCCCCCCC/C=C\CCCCCCCC(=O)N(CCO)C(C(=O)NCCN(C)CCNC(=O)C(C(C)C)N(CCO)C(=O)CCCCCCC/C=C\CCCCCCCC)C(C)C` (stereo not shown) [A1I4R22C18-1] are 3.18E+05 and 2.86E+04.
Turning to `CCCCCCCC/C=C\CCCCCCCC(=O)N(CCOC)C(C(=O)NCCN(C)CCNC(=O)C(C(C)C)N(CCOC)C(=O)CCCCCCC/C=C\CCCCCCCC)C(C)C` (stereo not shown) [A1I4R23C18-1], the “Fluorescence intensity of spleen” value in experiment [1] (compounds of Example 2) was 3.11E+05. This compound displayed a Local fluorescence intensity in experiment [2] (compounds of Example 2) of 1.77E+05.
With `CCCCC/C=C\C/C=C\CCCCCCCC(=O)N(CCOC)C(C(=O)NCCN(C)CCNC(=O)C(C(C)C)N(CCOC)C(=O)CCCCCCC/C=C\C/C=C\CCCCC)C(C)C` (stereo not shown) [A1I4R23C18-2], the “Fluorescence intensity of spleen” value in experiment [1] (compounds of Example 2) worked out at 9.64E+05. In addition, the Local fluorescence intensity in experiment [2] (compounds of Example 2) is 8.72E+05.
On the same counts, the results for `CCCCCCCCCCCCCCCCCC(=O)N(CCOC)C(C(=O)NCCN(C)CCNC(=O)C(C(C)C)N(CCOC)C(=O)CCCCCCCCCCCCCCCCC)C(C)C` (stereo not shown) [A1I4R23C18] are 1.51E+05 and 7.53E+04.
For `CCCCC/C=C\C/C=C\CCCCCCCC(=O)N(CCCCCO)C(C(=O)NCCN(C)CCNC(=O)C(C(C)C)N(CCCCCO)C(=O)CCCCCCC/C=C\C/C=C\CCCCC)C(C)C` (stereo not shown) [A1I4R27C18-2], the Local fluorescence intensity in experiment [2] (compounds of Example 2) was determined as 1.67E+04.
In experiment [2] (compounds of Example 2), `CCCCC/C=C\C/C=C\CCCCCCCC(=O)N(CCCCCCO)C(C(=O)NCCN(C)CCNC(=O)C(C(C)C)N(CCCCCCO)C(=O)CCCCCCC/C=C\C/C=C\CCCCC)C(C)C` (stereo not shown) [A1I4R28C18-2] showed a Local fluorescence intensity of 1.72E+06.
In experiment [2] (compounds of Example 2), `CCCC/C=C\C/C=C\CCCCCCCC(=O)N(C(C(=O)NCCN(C)CCNC(=O)C(C(C)C)N(C(=O)CCCCCCC/C=C\C/C=C\CCCCC)C(C)(CO)CO)C(C)C)C(C)(CO)CO` (stereo not shown) [A1I4R29C18-2] gave a Local fluorescence intensity of 2.99E+04.
`CCCCC/C=C\C/C=C\CCCCCCCC(=O)N(C(C(=O)NCCN(C)CCNC(=O)C(C(C)C)N(C(=O)CCCCCCC/C=C\C/C=C\CCCCC)C(CO)(CO)CO)C(C)C)C(O)(CO)CO` (stereo not shown) [A1I4R30C18-2] registered a Local fluorescence intensity in experiment [2] (compounds of Example 2) of 2.05E+04.
Take `CCCCC/C=C\C/C=C\CCCCCCCC(=O)N(CCCOCC)C(C(=O)NCCN(C)CCNC(=O)C(C(C)C)N(CCCOCC)C(=O)CCCCCCC/C=C\C/C=C\CCCCC)C(C)C` (stereo not shown) [A1I4R31C18-2]: the Local fluorescence intensity in experiment [2] (compounds of Example 2) is on record as 5.21E+04.
For `CCCCC/C=C\C/C=C\CCCCCCCC(=O)N(CCCOC(C)C)C(C(=O)NCCN(C)CCNC(=O)C(C(C)C)N(CCCOC(C)C)C(=O)CCCCCCC/C=C\C/C=C\CCCCC)C(C)C` (stereo not shown) [A1I4R32C18-2], the Local fluorescence intensity in experiment [2] (compounds of Example 2) is given as 2.57E+04.
Compound `CCCC/C=C\C/C=C\CCCCCCCC(=O)N(C(CC)COC)C(C(=O)NCCN(C)CCNC(=O)C(C(C)C)N(C(=O)CCCCCCC/C=C\C/C=C\CCCCC)C(CC)COC)C(C)C` (stereo not shown) [A1I4R33C18-2] returned a Local fluorescence intensity in experiment [2] (compounds of Example 2) of 1.02E+05.
In turn, `CCCC/C=C\C/C=C\CCCCCCCC(=O)N(CC(OC)OC)C(C(=O)NCCN(C)CCNC(=O)C(C(C)C)N(CC(OC)OC)C(=O)CCCCCCC/C=C\C/C=C\CCCCC)C(C)C` (stereo not shown) [A1I4R34C18-2] showed a Local fluorescence intensity in experiment [2] (compounds of Example 2) of 5.58E+05.
In turn, `CCCC/C=C\C/C=C\CCCCCCCC(=O)N(CC1CCCO1)C(C(=O)NCCN(C)CCNC(=O)C(C(C)C)N(CC1CCCO1)C(=O)CCCCCCC/C=C\C/C=C\CCCCC)C(C)C` (stereo not shown) [A1I4R35C18-2] displayed a Local fluorescence intensity in experiment [2] (compounds of Example 2) of 3.38E+05.
As for `CCCC/C=C\C/C=C\CCCCCCCC(=O)N(CCOCCO)C(C(=O)NCCN(C)CCNC(=O)C(C(C)C)N(CCOCCO)C(=O)CCCCCCC/C=C\C/C=C\CCCCC)C(C)C` (stereo not shown) [A1I4R36C18-2], in experiment [2] (compounds of Example 2), the Local fluorescence intensity was 5.68E+04.
The compound `CCCC/C=C\C/C=C\CCCCCCCC(=O)N(CCCO)C(C(=O)NCCN(C)CCNC(=O)C(C(C)C)N(CCCO)C(=O)CCCCCCC/C=C\C/C=C\CCCCC)C(C)C` (stereo not shown) [A1I4R42C18-2] yielded a Local fluorescence intensity in experiment [2] (compounds of Example 2) of 7.04E+04.
`CCCC/C=C\C/C=C\CCCCCCCC(=O)N(CCCOC)C(C(=O)NCCN(C)CCNC(=O)C(C(C)C)N(CCCOC)C(=O)CCCCCCC/C=C\C/C=C\CCCCC)C(C)C` (stereo not shown) [A1I4R43C18-2]: in experiment [2] (compounds of Example 2), the Local fluorescence intensity was determined as 6.57E+04.
Regarding `CCCCC/C=C\C/C=C\CCCCCCCC(=O)N(CC1CCOCC1)C(C(=O)NCCN(C)CCNC(=O)C(C(C)C)N(CC1CCOCC1)C(=O)CCCCCCC/C=C\C/C=C\CCCCC)C(C)C` (stereo not shown) [A1I4R48C18-2], the Local fluorescence intensity in experiment [2] (compounds of Example 2) was 8.55E+04.
Regarding `CCCCCCCCCCCCCC(=O)N(CCO)C(C(=O)NCCN(CCNC(=O)C(C(C)C)N(CCO)C(=O)CCCCCCCCCCCCC)CCNC(=O)C(C(C)C)N(CCO)C(=O)CCCCCCCCCCCCC)C(C)C` (stereo not shown) [A1I5R22C14], the “Fluorescence intensity of spleen” value in experiment [1] (compounds of Example 3) worked out at 1.20E+06. In addition, the Local fluorescence intensity in experiment [2] (compounds of Example 3) was found to be 1.08E+05.
On the same counts, the results for `CCCCCCCCSSCCC(=O)N(CCO)C(C(=O)NCCN(CCNC(=O)C(C(C)C)N(CCO)C(=O)CCSSCCCCCCCC)CCNC(=O)C(C(C)C)N(CCO)C(=O)CCSSCCCCCCCC)C(C)C` (stereo not shown) [A1I5R22S13] are 1.60E+06 and 5.74E+05.
In the case of `CCCCCCCC/C=C\CCCCCCCC(=O)N(CCC)C(C(=O)NCCN(C)CCNC(=O)C(C1CCCCC1)N(CCC)C(=O)CCCCCCC/C=C\CCCCCCCC)C1CCCCC1` (stereo not shown) [A23I4R21C18-1], the “Fluorescence intensity of spleen” value in experiment [1] (compounds of Example 2) was found to be 9.63E+04.
Regarding `CCCCC/C=C\C/C=C\CCCCCCCC(=O)N(CCC)C(C(=O)NCCN(C)CCNC(=O)C(C1CCCCC1)N(CCC)C(=O)CCCCCCC/C=C\C/C=C\CCCCC)C1CCCCC1` (stereo not shown) [A23I4R21C18-2], the “Fluorescence intensity of spleen” value in experiment [1] (compounds of Example 2) was determined as 6.07E+04.
On the same count and under the same terms, next, `CCCCCCCCCCCCCCCCCC(=O)N(CCC)C(C(=O)NCCN(C)CCNC(=O)C(C1CCCCC1)N(CCC)C(=O)CCCCCCCCCCCCCCCCC)C1CCCCC1` (stereo not shown) [A23I4R21C18]: 5.43E+03.
Turning to `CCCCC/C=C\C/C=C\CCCCCCCC(=O)N(CCOC)C(C(=O)NCCN(C)CCNC(=O)C(C1CCCCC1)N(CCOC)C(=O)CCCCCCC/C=C\C/C=C\CCCCC)C1CCCCC1` (stereo not shown) [A23I4R23C18-2], the “Fluorescence intensity of spleen” value in experiment [1] (compounds of Example 2) worked out at 1.04E+05.
With `CCCCCCCC/C=C\CCCCCCCC(=O)N(CCN(C)C)C(C(=O)NCCCCCCCCCCCCCCCCCC)C1CCCCC1` (stereo not shown) [A23I18R1C18-1], the “Fluorescence intensity of liver” value in experiment [1] is on record as 5.74E+06.
As for `CCCCC/C=C\C/C=C\CCCCCCCC(=O)N(CCN(C)C)C(C(=O)NCCCCCCCCCCCCCCCCCC)C1CCCCC1` (stereo not shown) [A23I18R1C18-2], in experiment [1], the “Fluorescence intensity of liver” value turned out to be 8.25E+06.
For `CC/C=C\C/C=C\C/C=C\CCCCCCCC(=O)N(CCN(C)C)C(C(=O)NCCCCCCCCCCCCCCCCCC)C1CCCCC1` (stereo not shown) [A23I18R1C18-3], the “Fluorescence intensity of liver” value in experiment [1] is given as 4.14E+06.
Same read-out and setting: for `CCCCCCCCCCCCCCCCCCNC(=O)C(C1CCCCC1)N(CCN(C)C)C(=O)CCCCCCCCCCCCCCCCC` (stereo not shown) [A23I18R1C18] the value was 9.09E+04; for `CCCCCCCCCCCCC#CC#CCCCCCCCCC(=O)N(CCN(C)C)C(C(=O)NCCCCCCCCCCCCCCCCCC)C1CCCCC1` (stereo not shown) [A23I18R1C23], 6.11E+06.
In the case of `CCCCCCCC/C=C\CCCCCCCC(=O)N(CCCN(C)C)C(C(=O)NCCCCCCCCCCCCCCCCCC)C1CCCCC1` (stereo not shown) [A23I18R2C18-1], the “Fluorescence intensity of liver” value in experiment [1] came out at 1.29E+06.
The same measure, in the same setting: next, `CC/C=C\C/C=C\C/C=C\CCCCCCCC(=O)N(CCCN(C)C)C(C(=O)NCCCCCCCCCCCCCCCCCC)C1CCCCC1` (stereo not shown) [A23I18R2C18-3]: 9.49E+05; `CCCCCCCCCCCCC#CC#CCCCCCCCCC(=O)N(CCCN(C)C)C(C(=O)NCCCCCCCCCCCCCCCCCC)C1CCCCC1` (stereo not shown) [A23I18R2C23]: 2.37E+06.
On the same count and under the same terms, for `CCCCCCCC/C=C\CCCCCCCC(=O)N(CCCN(CC)CC)C(C(=O)NCCCCCCCCCCCCCCCCCC)C1CCCCC1` (stereo not shown) [A23I18R3C18-1] the value was 1.26E+06; for `CCCCC/C=C\C/C=C\CCCCCCCC(=O)N(CCCN(CC)CC)C(C(=O)NCCCCCCCCCCCCCCCCCC)C1CCCCC1` (stereo not shown) [A23I18R3C18-2], 4.86E+06; for `CC/C=C\C/C=C\C/C=C\CCCCCCCC(=O)N(CCCN(CC)CC)C(C(=O)NCCCCCCCCCCCCCCCCCC)C1CCCCC1` (stereo not shown) [A23I18R3C18-3], 1.13E+06.
Consider `CCCCCCCCCCCCCCCCCCNC(=O)C(C1CCCCC1)N(CCCN(CC)CC)C(=O)CCCCCCCCCCCCCCCCC` (stereo not shown) [A23I18R3C18], for which, in experiment [1], the “Fluorescence intensity of liver” value amounted to 2.14E+03.
`CCCCCCCCCCCCC#CC#CCCCCCCCCC(=O)N(CCCN(CC)CC)C(C(=O)NCCCCCCCCCCCCCCCCCC)C1CCCCC1` (stereo not shown) [A23I18R3C23]: in experiment [1], the “Fluorescence intensity of liver” value came to 7.89E+05.

The values are drawn from US20250161216A1, “CATIONIC LIPID ANALOGUES, COMPOSITIONS AND USES THEREOF” (GUANGZHOU LIDE BIOMEDICINE TECHNOLOGY CO., LTD., priority 2022, published 2025).
